We go through two compounds from the NIST ThermoML archive (doi:10.1021/acs.jced.6b00781).

Structures are written as SMILES. ± gives the expanded uncertainty stated by the source.

The conditions of the data set: Crystal.

For the compound `Oc1cccc2ccccc12` [1-naphthol], under “visual observation”, the Normal melting temperature is 97.39 ± 2 °C.

For the compound `Oc1ccc2ccccc2c1` [2-hydroxynaphthalene], the Normal melting temperature (DTA) stood at 123.83 ± 2 °C.
